The values that follow come from patent US11878003B2, “Composition comprising organoselenium compound for treatment of skeletal muscle atrophy” (Gwangju Institute of Science and Technology, priority 2021, dated 2024).

The test system of one data set is C2C12 myoblasts. The data set is described as follows: Myogenesis, myotube formation and morphology without dexamethasone. In kind it is cell-based, mouse. The method, then:
Then, the myoblasts were treated with a differentiation medium (DMEM supplemented with 2% horse serum and PenStrep) for 72 hours so that the myoblasts were induced to differentiate into myotubes.
In differentiation cultures, myotubes were visualized by treatment with 50 nM MitoTracker Red CMX-Ros and […] DAPI in a differentiation medium at 37° C. for 30 minutes and imaged using a fluorescence microscope (Leica DMI3000B, Germany) as described above.
To evaluate myotube formation and atrophy, five microscopic fields of H&E-stained or MitoTracker Red CMX-Ros-stained cultures were randomly captured, and multinuclear myotube formation and diameters were calculated. Myotubes were designated as multinucleated cells containing three or more nuclei, and the diameters of myotubes were calculated using ImageJ 1.48 software (National Institutes of Health, Bethesda, MD, USA).

A further data set deals with IMPase. The data set is described as follows: IMPase activity assay in myotubes (myo-inositol assay kit). In kind it is cell-based, mouse. The following applies: 10 μM dexamethasone. The protocol:
IMPase activity in cells and tissues was measured using a myo-inositol assay kit (Megazyme, Ireland) according to the manufacturer's instructions. The cell […] was sonicated in PBS for 90 seconds with a 30-second on and 15-second off cycle (Vibra-Cell, USA) as described above, and then centrifuged at 13,000×g for 15 minutes as described above. Thus, the supernatant was prepared.

A further data set relates to FoxO3a. Description: Immunocytochemistry of FoxO3a in myotubes. The class given is cell-based, mouse. The protocol:
Myoblasts were differentiated into myotubes in 6 well plates. The myotubes were then immunostained for FoxO3a (Cell Signaling Technology, dilution of 1:400). Alexa Fluor 488 goat anti-mouse IgG was used as a secondary antibody (manufactured by Invitrogen). Nuclei were stained using DAPI solution (1 μM dissolved in third distilled water). Staining was visualized by fluorescence microscopy (Leica DMI3000 B).

Data set [1] concerns C57BL/6J mice. The data set is described as follows: Skeletal muscle atrophy dexamethasone model. In kind it is in vivo, mouse. The protocol:
13-week-old male C57BL/6J mice were treated with drugs as follows: • 1) Injection of vehicle (4% hydroxypropyl-β-cyclodextrin) alone; • 2) 15 mg/kg of dexamethasone dissolved in vehicle; • 3) 15 mg/kg of dexamethasone and 1 mg/kg of ebselen; and • 4) Injection of 15 mg/kg dexamethasone and 3 mg/kg ebselen (n=5 per group).
The muscle condition was evaluated after intraperitoneal injection daily for 14 days with the same drug as above.
A grip strength of each mouse was recorded using a BIO-GS3 (Bioseb, USA). To measure the grip strength, mice were placed on a metal grid to grip the metal grid with four paws and were gently pulled back until the mice were unable to continue holding the grid. Muscle strength was expressed using the maximum value obtained from three trials at 1-minute intervals.
Mice were placed in the center of a grid, and it was made sure that the grid was gripped by the limbs of the mice. Next, the grid was turned over and hung at a height of 50 cm above a baseline, and the hanging time was measured up to 10 minutes.
In the case of the dexamethasone-induced atrophy model, the quadriceps, gastrocnemius and splenic muscles were dissected and weighed. The quadriceps were stained with H&E according to the same protocol used for the glycerol test and used for histological analysis.

Data set [2] has as its system C57BL/6J mice. Description: Skeletal muscle degenerative glycerol model. The class given is in vivo, mouse. The protocol: The glycerol infusion protocol was used to induce muscle degeneration. Male C57BL/6J mice were anesthetized with PBS containing ketamine (22 mg/kg; Yuhan, Republic of Korea) and xylazine (10 mg/kg; Bayer, Republic of Korea), 100 μL glycerol (50% vol/vol) was injected into unilateral gastrocnemius muscle and splenic muscle.
The mice were treated with vehicle (0.5% methyl cellulose) or with vehicle+ebselen (30 mg/kg) via oral gavage every 24 hours (n=6 per group). A muscle fatigue test was performed after 5 days.
Muscle fatigue was measured using a known protocol (Chiu, et al.). In summary, mice were trained prior to initiating the fatigue task using an accelerated Rotarod (Ugo Basile, Italy). Mice were trained with a Rotarod at a constant speed of 13 rpm for 15 minutes. After 15-minute recovery, mice were placed on a Rotarod adapted to accelerate to 13 to 25 rpm within 3 minutes, for 15 minutes. After 24 hours, the muscle fatigue test was performed with a ramping rate of 13 to 25 rpm within 3 minutes and held at 25 rpm for 30 minutes. For each mouse, a delay time falling from the Rotarod was measured. Mice being tiered were classified as falling 4 times within 1 minute and the test was stopped.
Before sacrificing the mice, the mice were anesthetized by intraperitoneal injection of PBS containing ketamine (22 mg/kg; Yuhan Corporation, Korea) and xylazine (10 mg/kg; Bayer, Korea). After sacrificing the mice, the gastrocnemius and splenic muscles of the glycerol injury model were dissected and weighed. For histological analysis, the muscles were incubated overnight with 4% paraformaldehyde at 4° C., fixed, and embedded in paraffin. 5-μm muscle sections were obtained and was stained with H&E using a kit according to the manufacturer's instructions (Merck & Co., USA). Damaged areas and cross-sectional areas were measured using ImageJ 1.48 software (National Institutes of Health).

For another data set, the system named is human skeletal myoblasts. Description: Dexamethasone atrophy in human skeletal myotubes. The class given is cell-based. As to conditions: 24 hours. The protocol: Human skeletal myoblasts were purchased from Thermo-Fisher Scientific. Myoblasts were thawed in a water bath, washed with […], and centrifuged at 180 g for 5 minutes at room temperature. Next, myoblasts were resuspended in DM and seeded in a 12-well plate at a density of 4.8×10^4 cells/well. After 72 hours, the myoblasts were treated with a compound for 24 hours. The myotube diameter was measured by optical microscopy analysis of DIC captured images (Olympus CKX41).

With `O=c1c2ccccc2[se]n1-c1ccccc1` [ebselen], the “myotube formation and overall myotube diameters” value in the data set on C2C12 myoblasts (10 μM ebselen, 5 mM LiCl or 1.25 μM BIO, 24 hours) was “enhanced myotube formation and increased overall myotube diameters”. For the same compound, in the data set with C2C12 myoblasts (no dexamethasone), the “proportion of larger diameter myotubes” value is on record as “significantly increased”. For the same compound, the values for the IMPase activity entry with IMPase and in the data set on C57BL/6J mice [1] (quadriceps) were “effective in inhibiting IMPase activity” and “inhibitory effect of ebselen on IMPase activity was confirmed”, respectively. In addition, the “FoxO3a up-regulation caused by dexamethasone” value in the data set with FoxO3a is “inhibited”. For the same compound, the body weight result with C57BL/6J mice [1] (15 mg/kg dexamethasone with ebselen, i.p. daily 14 days, vs untreated mice) is recorded as “significant weight loss”; in the data set on C57BL/6J mice [2] (30 mg/kg ebselen, oral gavage every 24 hours), “no significant difference”. In addition, the quadriceps mass result in the data set on C57BL/6J mice [1] (15 mg/kg dexamethasone, 1 or 3 mg/kg ebselen, i.p. daily 14 days) is reported as “recovered”. The hanging time result in the data set with C57BL/6J mice [1] (inverted hanging test, vs dexamethasone-treated mice) is listed as “significantly enhanced”. Further, the “muscle fiber cross-sectional area” value in the data set with C57BL/6J mice [1] (quadriceps, histology) is recorded as “increased”. Further, the “ratio of larger fibers” value in the data set with C57BL/6J mice [1] (quadriceps, histology) is reported as “increased”. Also, the “expression of Atrogin-1 and Murf-1” value with C57BL/6J mice [1] (quadriceps, qPCR) is recorded as “effectively reduced”; with C57BL/6J mice [2] (gastrocnemius, qPCR), “effectively reduced”. Also, the grip strength entry in the data set with C57BL/6J mice [1] (vs dexamethasone-treated mice) is “significantly enhanced”. In addition, the concentration of myo-inositol result in the data set with C57BL/6J mice [2] (gastrocnemius muscle damaged by glycerol) is recorded as “decreased”. The gastrocnemius muscle mass result in the data set with C57BL/6J mice [2] (glycerol-injected muscle) is “increased”. Besides, the “mass loss of splenic muscle” value in the data set on C57BL/6J mice [2] (glycerol-injected splenic muscle) is “significantly inhibited”. For the same compound, the damaged area entry in the data set with C57BL/6J mice [2] (histology, H&E) was “reduced”. For the same compound, the fiber cross-sectional area entry with C57BL/6J mice [2] (histology, H&E) is listed as “larger”. Besides, the gastrocnemius mass entry with C57BL/6J mice [2] (non-injected muscles, oral ebselen) is given as “did not affect”. The “myotube diameter and proportion of large diameter myotubes” value with human skeletal myoblasts is “inhibited the effect of dexamethasone”.
